From PubChem BioAssay AID1963856 (Molecular Pharmacology Branch, DTP, NCI, 2024)
Several values for one entry are separate records, joined by “and”; a condition that tells them apart may be missing. Identical values can stand only once.

System: LG0567-F671-PDC KRAS tumor spheroid viability
Experiment: Anticancer human tumor LG0567-F671-PDC patient-derived lung adenocarcinoma cell line growth inhibition [KRAS2]
Details: spheroids with HUVEC and MSC; for viability, T/C: stronger effect = lower value
Method in brief: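 Combination screen of spheroid viability in tumor-cell co-cultures with endothelial (HUVEC) and mesenchymal stem cell stroma. Each agent was tested in half-log dilutions, topping at clinical Cmax or at 10 microM without a known Cmax.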

[1] = curve of first compound, second compound 0.1 µM
[2] = curve of first compound, second compound 0.316 µM
[3] = curve of first compound, second compound 1 µM
[4] = curve of first compound, second compound 3.16 µM
[5] = curve of first compound, second compound 10 µM
[6] = second compound 0.1 µM, first compound 0.0316 µM
[7] = second compound 0.1 µM, first compound 0.1 µM
[8] = second compound 0.1 µM, first compound 0.316 µM
[9] = second compound 0.1 µM, first compound 1 µM
[10] = second compound 0.1 µM, first compound 3.16 µM
[11] = second compound 0.316 µM, first compound 0.0316 µM
[12] = second compound 0.316 µM, first compound 0.1 µM
[13] = second compound 0.316 µM, first compound 0.316 µM
[14] = second compound 0.316 µM, first compound 1 µM
[15] = second compound 0.316 µM, first compound 3.16 µM
[16] = second compound 1 µM, first compound 0.0316 µM
[17] = second compound 1 µM, first compound 0.1 µM
[18] = second compound 1 µM, first compound 0.316 µM
[19] = second compound 1 µM, first compound 1 µM
[20] = second compound 1 µM, first compound 3.16 µM
[21] = second compound 3.16 µM, first compound 0.0316 µM
[22] = second compound 3.16 µM, first compound 0.1 µM
[23] = second compound 3.16 µM, first compound 0.316 µM
[24] = second compound 3.16 µM, first compound 1 µM
[25] = second compound 3.16 µM, first compound 3.16 µM
[26] = second compound 10 µM, first compound 0.0316 µM
[27] = second compound 10 µM, first compound 0.1 µM
[28] = second compound 10 µM, first compound 0.316 µM
[29] = second compound 10 µM, first compound 1 µM
[30] = second compound 10 µM, first compound 3.16 µM
[31] = second compound 0.1 µM, first compound 10 µM
[32] = second compound 0.316 µM, first compound 10 µM
[33] = second compound 1 µM, first compound 10 µM
[34] = second compound 3.16 µM, first compound 10 µM
[35] = second compound 10 µM, first compound 10 µM
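Note: drug exposure lasted seven days after spheroids formed for three days.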
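Throughout, for viability, T/C: 100% = DMSO vehicle control viability.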

| SMILES | IC50 [1] | IC50 [2] | IC50 [3] | IC50 [4] | IC50 [5] | viability, T/C [6] | viability, T/C [7] | viability, T/C [8] | viability, T/C [9] | viability, T/C [10] | viability, T/C [11] | viability, T/C [12] | viability, T/C [13] | viability, T/C [14] | viability, T/C [15] | viability, T/C [16] | viability, T/C [17] | viability, T/C [18] | viability, T/C [19] | viability, T/C [20] | further results |
| --- | --- | --- | --- | --- | --- | --- | --- | --- | --- | --- | --- | --- | --- | --- | --- | --- | --- | --- | --- | --- | --- |
| CC1COCCN1c1cc(-c2ccnn2C)c2ccnc(-c3ccn[nH]3)c2n1 (centres undefined) + CC1OCC2(CCN(c3cnc(Sc4ccnc(N)c4Cl)c(N)n3)CC2)C1N | < 10 nM | < 10 nM | < 10 nM | < 10 nM | < 10 nM | 41.8% | 32% | 36.3% | 41.7% | 48.2% | 31.8% | 24.9% | 18.5% | 21.6% | 27.5% | 23.4% | 19% | 15.3% | 10.2% | 9.22% | viability, T/C (second compound 0.1 µM, first compound 0.01 µM): 59.9%; viability, T/C (second compound 0.316 µM, first compound 0.01 µM): 39%; viability, T/C (second compound 1 µM, first compound 0.01 µM): 28.2%; viability, T/C (second compound 3.16 µM, first compound 0.01 µM): 23%; viability, T/C [21]: 16.3%; viability, T/C [22]: 10.9%; viability, T/C [23]: 7.95%; viability, T/C [24]: 8.32%; viability, T/C [25]: 3.11%; viability, T/C (second compound 10 µM, first compound 0.01 µM): 14.4%; viability, T/C [26]: 12%; viability, T/C [27]: 7.07%; viability, T/C [28]: 3.98%; viability, T/C [29]: 2.99%; viability, T/C [30]: 1.57% |
| COc1cc2nc(C)nc(NC(C)c3cc(N)cc(C(F)(F)F)c3)c2cc1OC1CCOC1 (centres undefined) | – | – | – | – | – | – | – | – | – | – | – | – | – | – | – | – | – | – | – | – | viability, T/C (compound 0.316 µM): 71.1% [middle of 17 runs]; IC50 (compound alone, run of 07/12/2021): > 10000 nM and 2620 nM and 2850 nM; IC50 (compound alone, run of 07/19/2021): > 10000 nM; IC50 (compound alone, run of 07/26/2021): > 10000 nM |
| CC(C)NCC(C(=O)N1CCN(c2ncnc3c2C(C)CC3O)CC1)c1ccc(Cl)cc1 (centres undefined) + CC1OCC2(CCN(c3cnc(Sc4ccnc(N)c4Cl)c(N)n3)CC2)C1N | < 31.6 nM | < 31.6 nM | < 31.6 nM | < 31.6 nM | < 31.6 nM | 48.9% | 38.3% | 29.8% | 31.9% | 33.6% | 37.1% | 30.9% | 21.5% | 20.5% | 18.6% | 26.4% | 22.4% | 14.3% | 11.9% | 10% | viability, T/C [31]: 36.5%; viability, T/C [32]: 16.6%; viability, T/C [33]: 6.25%; viability, T/C [21]: 21.2%; viability, T/C [22]: 17.3%; viability, T/C [23]: 10.9%; viability, T/C [24]: 5.23%; viability, T/C [25]: 4.49%; viability, T/C [34]: 3.72%; viability, T/C [26]: 6.83%; viability, T/C [27]: 7.98%; viability, T/C [28]: 5.46%; viability, T/C [29]: 3.11%; viability, T/C [30]: 2.15%; viability, T/C [35]: 1.82% |
| Cn1nccc1Nc1nccc(-c2cc3c(s2)C(C)(C)N(CCN2CCOCC2)C3=O)n1 + CC1OCC2(CCN(c3cnc(Sc4ccnc(N)c4Cl)c(N)n3)CC2)C1N | 180 nM | < 31.6 nM | < 31.6 nM | < 31.6 nM | < 31.6 nM | 60.6% | 52% | 46.3% | 38.9% | 24.1% | 36.8% | 35.9% | 29.7% | 24.3% | 21.5% | 32.6% | 29.5% | 21% | 18.3% | 16.4% | viability, T/C [31]: 23.4%; viability, T/C [32]: 18.2%; viability, T/C [33]: 12.4%; viability, T/C [21]: 18.6%; viability, T/C [22]: 19.6%; viability, T/C [23]: 17.9%; viability, T/C [24]: 9.57%; viability, T/C [25]: 7.17%; viability, T/C [34]: 10.8%; viability, T/C [26]: 10.2%; viability, T/C [27]: 10.7%; viability, T/C [28]: 10.5%; viability, T/C [29]: 4.14%; viability, T/C [30]: 3.55%; viability, T/C [35]: 5.13% |
